Experimental data published in ChEMBL document CHEMBL1145883, “Lysine sulfonamides as novel HIV-protease inhibitors: optimization of the Nepsilon-acyl-phenyl spacer” (Bioorg Med Chem Lett, 2003).

Tests used:
[1] = target: Human immunodeficiency virus type 1 protease (Human immunodeficiency virus 1, UniProt Q72874); experiment: Inhibitory activity against HIV-1 protease
[2] = test system: Human immunodeficiency virus 1; experiment: Antiviral activity; assay type: functional, organism-based

Cc1ccc(S(=O)(=O)N(CC(C)C)[C@@H](CCCCNC(=O)CNc2ccccc2)C(=O)O)cc1
Ki [1]: 7.8 nM

Cc1ccc(S(=O)(=O)N(CC(C)C)[C@@H](CCCCNC(=O)CN(Cc2ccccc2)c2ccccc2)C(=O)O)cc1
Ki [1]: 0.72 nM

Cc1ccc(S(=O)(=O)N(CC(C)C)[C@H](CO)CCCCNC(=O)CN(c2ccccc2)C(C)C)cc1
Ki [1]: 16 nM | EC50 [2]: 1100 nM

Cc1ccc(S(=O)(=O)N(CC(C)C)[C@@H](CCCCNC(=O)CS(=O)(=O)c2ccccc2)C(=O)O)cc1
Ki [1]: 20 nM

Cc1ccc(S(=O)(=O)N(CC(C)C)[C@@H](CCCCNC(=O)OCc2ccccc2)C(=O)O)cc1
Ki [1]: > 300 nM

CC(C)CN([C@H](CO)CCCCNC(=O)CN(Cc1ccccc1)c1ccccc1)S(=O)(=O)c1ccc(N)cc1
Ki [1]: 2.4 nM

Cc1ccc(S(=O)(=O)N(CC(C)C)[C@@H](CCCCNC(=O)N(Cc2ccccc2)Cc2ccccc2)C(=O)O)cc1
Ki [1]: 8 nM

Cc1ccc(S(=O)(=O)N(CC(C)C)[C@H](CO)CCCCNC(=O)CN(Cc2ccccc2)c2ccccc2)cc1
Ki [1]: 7.6 nM | EC50 [2]: 4200 nM

Cc1ccc(S(=O)(=O)N(CC(C)C)[C@H](CO)CCCCNC(=O)CN(c2ccccc2)c2ccccc2)cc1
Ki [1]: 12 nM | EC50 [2]: 6700 nM

Cc1ccc(S(=O)(=O)N(CC(C)C)[C@@H](CCCCNC(=O)[C@@H](O)Cc2ccccc2)C(=O)O)cc1
Ki [1]: 6.2 nM

Cc1ccc(S(=O)(=O)N(CC(C)C)[C@H](CO)CCCCNC(=O)CN(Cc2cccc(N)c2)c2ccccc2)cc1
Ki [1]: 7.6 nM | EC50 [2]: 3000 nM

Cc1ccc(S(=O)(=O)N(CC(C)C)[C@@H](CCCCNC(=O)C(=O)Cc2ccccc2)C(=O)O)cc1
Ki [1]: 14 nM

Cc1ccc(S(=O)(=O)N(CC(C)C)[C@@H](CCCCNC(=O)NCc2ccccc2)C(=O)O)cc1
Ki [1]: 32 nM

Cc1ccc(S(=O)(=O)N(CC(C)C)[C@@H](CCCCNC(=O)c2ccccc2)C(=O)O)cc1
Ki [1]: > 300 nM

CC(C)CN([C@H](CO)CCCCNC(=O)CN(Cc1cccc(N)c1)c1ccccc1)S(=O)(=O)c1ccc(N)cc1
Ki [1]: 6.9 nM | EC50 [2]: 524 nM

CC(C)CN([C@H](CO)CCCCNC(=O)CN(Cc1cccc([N+](=O)[O-])c1)c1ccccc1)S(=O)(=O)c1ccc(N)cc1
Ki [1]: 1.2 nM | EC50 [2]: 339 nM

Cc1ccc(S(=O)(=O)N(CC(C)C)[C@@H](CCCCNC(=O)CCc2ccccc2)C(=O)O)cc1
Ki [1]: 6.9 nM

Cc1ccc(S(=O)(=O)N(CC(C)C)[C@@H](CCCCNC(=O)Cc2ccccc2)C(=O)O)cc1
Ki [1]: > 300 nM

COc1cccc(CN(CC(=O)NCCCC[C@@H](CO)N(CC(C)C)S(=O)(=O)c2ccc(C)cc2)c2ccccc2)c1OC
Ki [1]: 2.4 nM | EC50 [2]: 760 nM

CN[C@@H](Cc1ccccc1)C(=O)NCCCC[C@@H](C(=O)O)N(CC(C)C)S(=O)(=O)c1ccc(C)cc1
Ki [1]: 2.1 nM

Cc1ccc(S(=O)(=O)N(CC(C)C)[C@H](CO)CCCCNC(=O)CN(Cc2cccc([N+](=O)[O-])c2)c2ccccc2)cc1
Ki [1]: 1.4 nM | EC50 [2]: 730 nM

COc1ccc(CN(CC(=O)NCCCC[C@@H](CO)N(CC(C)C)S(=O)(=O)c2ccc(N)cc2)c2ccccc2)cc1
Ki [1]: 2.4 nM

CC(C)CN([C@H](CO)CCCCNC(=O)CN(Cc1ccc([N+](=O)[O-])cc1)c1ccccc1)S(=O)(=O)c1ccc(N)cc1
Ki [1]: 0.59 nM | EC50 [2]: 540 nM

Cc1ccc(S(=O)(=O)N(CC(C)C)[C@@H](CCCCNC(=O)/C=C/c2ccccc2)C(=O)O)cc1
Ki [1]: > 300 nM

COc1ccc(CN(CC(=O)NCCCC[C@@H](CO)N(CC(C)C)S(=O)(=O)c2ccc(C)cc2)c2ccccc2)cc1
Ki [1]: 7.3 nM | EC50 [2]: > 10000 nM

Cc1ccc(S(=O)(=O)N(CC(C)C)[C@@H](CCCCNC(=O)CCCc2ccccc2)C(=O)O)cc1
Ki [1]: > 300 nM

COc1ccc(CN(CC(=O)NCCCC[C@@H](CO)N(CC(C)C)S(=O)(=O)c2ccc(N)cc2)c2ccccc2)cc1OC
Ki [1]: 2.9 nM | EC50 [2]: 366 nM

Cc1ccc(S(=O)(=O)N(CC(C)C)[C@H](CO)CCCCNC(=O)CN(CCc2ccccc2)c2ccccc2)cc1
Ki [1]: 52 nM | EC50 [2]: > 10000 nM

Cc1ccc(S(=O)(=O)N(CC(C)C)[C@@H](CCCCNC(=O)[C@@H](N)Cc2ccccc2)C(=O)O)cc1
Ki [1]: 1.5 nM

Cc1ccc(S(=O)(=O)N(CC(C)C)[C@@H](CCCCNC(=O)N(C)Cc2ccccc2)C(=O)O)cc1
Ki [1]: 55 nM

Cc1ccc(S(=O)(=O)N(CC(C)C)[C@@H](CCCCNC(=O)CN(C)c2ccccc2)C(=O)O)cc1
Ki [1]: 12 nM

CC(C)CN([C@H](CO)CCCCNC(=O)CN(Cc1cccc(F)c1)c1ccccc1)S(=O)(=O)c1ccc(N)cc1
Ki [1]: 1.1 nM | EC50 [2]: 1100 nM

Cc1ccc(S(=O)(=O)N(CC(C)C)[C@@H](CCCCNC(=O)C(c2ccccc2)c2ccccc2)C(=O)O)cc1
Ki [1]: 171 nM

Cc1ccc(S(=O)(=O)N(CC(C)C)[C@@H](CCCCNC(=O)COc2ccccc2)C(=O)O)cc1
Ki [1]: 18 nM

Cc1ccc(S(=O)(=O)N(CC(C)C)[C@@H](CCCCNC(=O)C2CC2c2ccccc2)C(=O)O)cc1 (stereo partly specified)
Ki [1]: > 300 nM

Cc1ccc(S(=O)(=O)N(CC(C)C)[C@H](CO)CCCCNC(=O)CN(Cc2ccccc2[N+](=O)[O-])c2ccccc2)cc1
Ki [1]: 3.9 nM | EC50 [2]: 3500 nM

Cc1ccc(S(=O)(=O)N(CC(C)C)[C@@H](CCCCNC(=O)CSc2ccccc2)C(=O)O)cc1
Ki [1]: 18 nM

COc1ccc(CN(CC(=O)NCCCC[C@@H](CO)N(CC(C)C)S(=O)(=O)c2ccc(C)cc2)c2ccccc2)cc1OC
Ki [1]: 3.5 nM | EC50 [2]: 1300 nM

CC(C)CN([C@H](CO)CCCCNC(=O)CN(Cc1ccccc1[N+](=O)[O-])c1ccccc1)S(=O)(=O)c1ccc(N)cc1
Ki [1]: 1.5 nM | EC50 [2]: 341 nM

COc1cccc(CN(CC(=O)NCCCC[C@@H](CO)N(CC(C)C)S(=O)(=O)c2ccc(N)cc2)c2ccccc2)c1OC
EC50 [2]: 340 nM

CC(C)CN([C@H](CO)CCCCNC(=O)CN(Cc1ccccc1F)c1ccccc1)S(=O)(=O)c1ccc(N)cc1
Ki [1]: 2.3 nM | EC50 [2]: 2200 nM

CC(C)CN([C@H](CO)CCCCNC(=O)CN(Cc1ccc(F)cc1)c1ccccc1)S(=O)(=O)c1ccc(N)cc1
Ki [1]: 2.3 nM | EC50 [2]: 1000 nM

Cc1ccc(S(=O)(=O)N(CC(C)C)[C@@H](CCCCNC(=O)C(Cc2ccccc2)C(C)(C)C)C(=O)O)cc1 (stereo partly specified)
Ki [1]: > 300 nM
